Test results taken from PMC7217250, “Efficiency of vanillin in impeding metabolic adaptability and virulence of Candida albicans by inhibiting glyoxylate cycle, morphogenesis, and biofilm formation” (Current Medical Mycology, 2020).

Molecular target: T1, Mls1p (malate synthase, MLS) (Candida albicans, UniProt Q5APD2)
T1 construct: gene MLS1; native enzyme in crude extract of C. albicans cells; not purified
Assay: spectrophotometric 5-thio-2-nitrobenzoic acid formation at […] nm, crude extract
Format: cell-based

T1 sequence (Q5APD2 entry or part of it): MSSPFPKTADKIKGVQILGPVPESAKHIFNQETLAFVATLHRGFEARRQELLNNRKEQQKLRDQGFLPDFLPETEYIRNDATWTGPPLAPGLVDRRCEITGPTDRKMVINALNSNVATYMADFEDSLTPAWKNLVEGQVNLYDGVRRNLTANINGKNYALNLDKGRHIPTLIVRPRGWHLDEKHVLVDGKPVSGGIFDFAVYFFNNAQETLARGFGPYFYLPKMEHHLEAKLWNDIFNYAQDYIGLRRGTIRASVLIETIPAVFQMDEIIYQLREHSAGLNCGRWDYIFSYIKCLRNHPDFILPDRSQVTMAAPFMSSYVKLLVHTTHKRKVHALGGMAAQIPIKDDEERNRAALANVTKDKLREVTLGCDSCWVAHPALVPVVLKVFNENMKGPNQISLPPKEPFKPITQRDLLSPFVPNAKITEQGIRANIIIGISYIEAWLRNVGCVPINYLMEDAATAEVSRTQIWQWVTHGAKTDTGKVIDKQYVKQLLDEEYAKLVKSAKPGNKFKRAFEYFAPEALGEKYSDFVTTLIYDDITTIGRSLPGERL

Compound: CC(=O)SCCNC(=O)CCNC(=O)[C@H](O)C(C)(C)COP(=O)(O)OP(=O)(O)OC[C@H]1O[C@@H](n2cnc3c(N)ncnc32)[C@H](O)[C@@H]1OP(=O)(O)O [acetyl CoA]
- spectrophotometric 5-thio-2-nitrobenzoic acid formation at 412 nm, crude extract: acetyl CoA (Sigma Chemical Co., USA) were used as the substrates for the ICL and MLS
